Assay results from patent US20090028842A1, “Dekkera/Brettanomyces Cytosine Deaminases And Their Use” (ZGene A/S, priority 2005, published 2009).

Key:
[1] = tested on: Dekkera/Brettanomyces yeasts; assay: Sensitivity of Dekkera/Brettanomyces yeasts to G418; format: cell-based; conditions: addition of 200 μg/ml; almost all yeasts tested
Text: There are no suitable auxotrophic markers or efficient transformation system to work with these yeasts. […] Using degenerative primers described in this study it was not possible to amplify CD genes from D. anomala, B. nanus, B. naardenensis and B. custersianus probably due to presence of introns in these genes. Therefore we designed a selection system based on Dekkera bruxellensis CD1 promoter and G418 resistance marker coding for 3′aminoglycoside-phosphotransferase. G418 is a ribosomal inhibitor in many eukaryotic cells but many yeast species are not sensitive to G418. However, almost all Dekkera/Brettanomyces yeasts tested were sensitive to addition of 200 μg/ml. Since G418 cannot be used in medium with high salt concentration (like SD medium) use of CD1 promoter which had activity in YPD medium (low salt) will permit expression of G418 gene and ultimately lead to resistance to G418 and enable direct selection of yeast colonies containing this gene. Cloning strategy was as described: pYES2 vector was cut with AgeI/HindIII restriction enzymes and fragment of app. 440 bp containing GAL promoter was removed. Promoter of 1075 bp from Y872 CD1 gene was cloned into AgeI/HindIII site resulting in pDbCD1p plasmid. The ORF from G418 gene (Acc. nr. S78175) was cloned under control of CD1 promoter into BamHI/EcoRI site. […]

PANC-1 = assay: XTT cell proliferation assay, untransduced PANC-1; format: cell-based; conditions: Homo sapiens; untransduced PANC-1, 96-120 hours of drug exposure
Experimental: (§1) Cancer cells were purchased from the American Type Culture Collection. Cells were cultured in RPMI, E-MEM or D-MEM with 10% (v/v) Australian originated foetal calf serum and 1 ml/l of gentamicin. Cells were grown at 37° C. in a humidified incubator with a gas phase of 5% CO2. The cells were transduced with the retrovirus containing medium mixed with 5 μg/ml of Polybrene, incubated for 48 hours and then cultured continuously for 3 weeks in the presence of 300-400 μg/ml Genetecin® (Life Technologies Inc.).
(§2) Cells were plated at densities range of 1.500-3.500 cells/well in 96-well plates coated with poly-L-lysine (Sigma). 5-FC was added after 24 hours of incubation. Each experiment was performed in four replicates. Cell survival was assayed after 96-120 hours of drug exposure by XTT cell proliferation kit (Roche). The data was corrected for background media-only absorbance where after the 50% cell killing drug concentration (IC50 value) was calculated using SigmaPlot® (SPSS Science, Dyrberg Trading, Denmark).

[2] = tested on: MCF7 cell line transduced with pLCXSN; assay: XTT cell proliferation assay, MCF7 transduced with empty vector pLCXSN; format: cell-based; conditions: Homo sapiens
Text: (§3) ORFs were amplified with Accuzyme DNA polymerase (Bioline) using primers with designed flanking restriction enzyme sites and containing Kozak sequence at 5′ end. D. bruxellensis CD constructs were cloned into the retrovirus vector pLCXSN. The vector is based on pLXSN (Clontech) to which the CMV promoter has been cloned into the polylinker site to form pLCXSN. The constructs obtained was named DbCDCvir (PZG917). pLCXSN alone was used as a control. The plasmids were purified using the Qiagen plasmid kit (QIAGEN) and DNA sequences were verified by DNA sequence determination. HE 293 T packaging cells (ATCC CRL-11268) were cultured at 37° C. in OPTIMEM 1 medium (Life Technologies, Inc.) The constructed retrovirus vectors were transfected into the packaging cells using LipofectAMINE PLUS (Life Technologies, Inc.) according to the protocol provided by the supplier. The medium from the transfected cells was collected 48 hours after transfection, filtered through a 0.45 μm filter, pelleted by ultracentrifugation (50.000×g, 90 minutes at 4° C.) and dissolved in D-MEM.
Cancer cells were purchased from the American Type Culture Collection. Cells were cultured in RPMI, E-MEM or D-MEM with 10% (v/v) Australian originated foetal calf serum and 1 ml/l of gentamicin. Cells were grown at 37° C. in a humidified incubator with a gas phase of 5% CO2. […]

U87MG = assay: XTT cell proliferation assay, untransduced U87MG; format: cell-based; conditions: Homo sapiens, U-87 MG, 96-120 hours of drug exposure
Experimental: as §1, §2

MCF7 = assay: XTT cell proliferation assay, untransduced MCF7; format: cell-based; conditions: Homo sapiens; untransduced MCF7, 96-120 hours of drug exposure
Experimental: as §1, §2

D. bruxellensis = assay: Growth of D. bruxellensis on plates containing 5-FC; format: cell-based, Dekkera bruxellensis; conditions: after 5 days
Experimental: (§4) The yeast strains used in this work are: Dekkera bruxellensis (Y872, CBS 1943), D. bruxellensis (Y879, CBS 2499), D. bruxellensis (CBS 4480, CBS 4481), D. anomala (CBS 76, CBS 77, CBS 1938, CBS 1947), Brettanomyces nanus (CBS 1945), B. nanus (CBS 1955, CBS 1956), M. reukauffii (CBS 2266), B. custersianus (CBS 4805), B. naardensis (CBS 6042), S. kluyveri Y057 (NRRL Y-12651), and S. cerevisiae Y051 (NRRL Y-12632). Yeast strains were grown at 25° in YPD medium (1% yeast extract, 2% bacto peptone, 2% glucose) or in defined minimal (SD) medium (1% succinic acid, 0.6% NaOH, 2% glucose, 0.67% yeast nitrogen base without amino acids from Difco). When indicated, (NH4)2SO4 was replaced with 0.1% cytosine as the sole nitrogen source giving N-minimal medium. The growth rate was determined in liquid medium by following the optical density at 600 nm. The E. coli strain TOP10 (Invitrogen) was used for plasmid amplification. Bacteria were grown at […] in Luria-Bertani medium supplemented with 100 mg/l of ampicillin for selection. The E. coli BL21-DE3 (Invitrogen) strain was used for heterologous protein expression.
(§5) The majority of yeast can utilize cytosine as sole source of nitrogen by using CD to cleave cytosine to ammonia (a source of nitrogen) and uracil. To test for the ability of Dekkera yeast for growth on cytosine, Y872 was spotted on N-minimal media containing 0.1% cytosine. […]

S. cerevisiae = assay: Growth of S. cerevisiae on plates containing 5-FC; format: cell-based, Saccharomyces cerevisiae
Experimental: as §4, §5

[3] = tested on: Dekkera/Brettanomyces strains; assay: Growth of various Dekkera/Brettanomyces strains on plates containing 5-FC; format: cell-based; conditions: all tested Dekkera and Brettanomyces species, after 5 days
Experimental: as §4
(§6) In FIG. 2 it can be seen that all the tested Dekkera/Brettanomyces strains are particularly susceptible to 5-FC, as growth is inhibited at 0.1 or at least at 0.36 μM 5.FC. For comparison, S. cerevisiae (FIG. 1) and M. reukauffii (FIG. 2) strains are included.

Metschnikowia reukauffii = assay: Growth of control strain Metschnikowia reukauffii on plates containing 5-FC; format: cell-based; conditions: 0.1 or 0.36 μM 5-FC, 5 days
Experimental: as §4, §6

HT-29 = assay: XTT cell proliferation assay, untransduced HT-29; format: cell-based; conditions: Homo sapiens; untransduced HT-29, 96-120 hours of drug exposure
Experimental: as §1, §2

[4] = tested on: MCF7 cell line transduced with Db CD gene; assay: XTT cell proliferation assay, MCF7 transduced with D. bruxellensis cytosine deaminase; format: cell-based, human
Text: as §3, §1, §2

[5] = CD activities with purified his-tagged proteins; format: biochemical; conditions: purified his-tagged protein, 37° C., cytosine 500 μM, triplicates, mean with standard deviation
Experimental: For recombinant protein expression, E. coli cells were grown to a density of A600 nm=0.5-0.6 in LB medium supplemented with 100 μg/ml ampicillin, and the expression was induced with 10 μM IPTG for 8 h at 25° C. The cells were harvested by centrifugation, and the pellet was resuspended in 25 ml ice-cold binding buffer A […] (50 mM sodium phosphate pH 8.0; 300 mM NaCl; 10% glycerol; 25 mM imidazole) containing protease inhibitor cocktail (Complete™-EDTA free from Roche Diagnostics). The cells were homogenized using a French Press, subjected to centrifugation at 12,000×g for 30 minutes (4° C.), filtered through a […] Whatman glass microfiber filter and a […] cellulose acetate filter, and loaded onto a 5 ml Ni^2+-NTA column (Qiagen). […]
Bacteria or cell lines were grown as described, harvested and stored at −80° C. until activity testing. […] Cytosine deaminase activities were determined spectrophotometrically by monitoring the absorbance decrease at 286 nm (Δε286=−0.68 mM^−1 cm^−1) resulting from the deamination of cytosine to uracil. […]
To characterize the substrate specificities of yeast CDs, purified proteins were measured at 37° C. and fixed cytosine concentration and assays was performed as described in Example 1 (Enzyme assays) (Table 3).

[6] = format: physicochemical
Experimental: Purified and his-tagged CD from D. bruxellensis and S. cerevisiae CD were assayed after different periods of storage at 50° C. and 37° C. (FIGS. 8a and 8b). Indeed, D. bruxellensis CD was extremely stable at 50° C. when compared to S. cerevisiae CD which lost all activity after only 4 minutes. Half life for D. bruxellensis CD at 50° C. was app. 3 hours (FIG. 8a). […] It should be observed that the temperature stability of the proteins without his-tags could be different.

CN[C@@H]1[C@@H](O)[C@@H](O[C@@H]2[C@@H](O)[C@H](O[C@H]3O[C@H]([C@@H](C)O)[C@@H](O)[C@H](O)[C@H]3N)[C@@H](N)C[C@H]2N)OC[C@]1(C)O [G418]
Sensitivity to G418 [1]: sensitive

Nc1nc(=O)[nH]cc1F [5-FC, 5-fluorocytosine]
IC50 (PANC-1): 2000 to 5000 µM
IC50 [2]: 9290 µM
IC50 (U87MG): 2000 to 5000 µM
IC50 (MCF7): 2000 to 5000 µM
5-FC concentration at which growth inhibition was observed (D. bruxellensis): 0.1 µM
5-FC concentration at which there was no visible growth (D. bruxellensis): 0.36 µM
Growth on plates with 5-FC (S. cerevisiae; S. cerevisiae control strain, 0.1 or 0.36 μM 5-FC, 5 days): not inhibited
5-FC concentration at which growth was first inhibited (S. cerevisiae; S. cerevisiae, plates, after 5 days): 1 µM
5-FC concentration at which growth inhibition was observed [3]: ≤ 0.36 µM
Growth on plates with 5-FC (Metschnikowia reukauffii): not inhibited
IC50 (HT-29): 2000 to 5000 µM
IC50 ([4]; Homo sapiens, MCF7, MCF7 transduced with D. bruxellensis cytosine deaminase): 2400 µM
IC50 ([4]; MCF7 transduced with D. bruxellensis cytosine deaminase): 2440 µM
sensitivity increase towards 5-FC ([4]; MCF7 with Db CD versus empty vector): 4 fold

B1: Db CD (PZG893): cytosine deaminase from Dekkera bruxellensis (SEQ ID NO 2), recombinant his-tagged protein (protein, listed as Dekkera bruxellensis)
chain: MTFDDKLGMQVAFEEAKKGFEEGGVPIGACLLTEEGKVIGRGHNMRVQKSSATLHGETSCFENAGRLPASVYKKCTLYTTLSPCSMCSGAALLFKIPRIVLGENETFVGAEKWLESNGVEVVNVHNKECKNLMDRFIKEKPEVWNEDIGE
modifications: His tag
CD activity, Cytosine [5]: 176.5 ± 5.3 U/mg/min
Half life [6]: ~3 h
Stability compared to S. cerevisiae CD [6]: more stable
